Measurements from ChEMBL document CHEMBL1201862, “PubChem BioAssay data set” (2004).
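The compound was tested at five concentrations on cells cultured in 96-well plates, with a 48-hour exposure period. The concentration for 50% growth inhibition is given as GI50.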 The source made the active and inactive calls. Rule as the data show it: active = GI50 up to about 1.1 µM and inactive = higher.

Tests used:
Experiment in all cases: inhibition of tumour cell growth, NCI panel, 48 h
786-0 = system: 786-0
A498 = system: A498
ACHN = system: ACHN
BT-549 = system: BT-549
DU-145 = system: DU-145
HCT-116 = system: HCT-116
HCT-15 = system: HCT-15
LOX IMVI = system: LOX IMVI
M14 = system: M14
MDA-MB-435 = system: MDA-MB-435
NCI-H226 = system: NCI-H226
OVCAR-5 = system: OVCAR-5
RPMI-8226 = system: RPMI-8226
SK-MEL-2 = system: SK-MEL-2
SW-620 = system: SW-620
TK-10 = system: TK-10
UACC-257 = system: UACC-257
UO-31 = system: UO-31
RXF 393 = system: RXF 393
SNB-75 = system: SNB-75

SMILES	GI50 (786-0)	GI50 (A498)	GI50 (ACHN)	GI50 (BT-549)	GI50 (DU-145)	GI50 (HCT-116)	GI50 (HCT-15) [µM]	GI50 (LOX IMVI)	GI50 (M14)	GI50 (MDA-MB-435)	GI50 (NCI-H226)	GI50 (OVCAR-5)	GI50 (RPMI-8226)	GI50 (SK-MEL-2)	GI50 (SW-620)	GI50 (TK-10)	GI50 (UACC-257)	GI50 (UO-31)	GI50 (RXF 393)	GI50 (SNB-75)
NN(CC(=O)O)CC(=O)O	> 100 µM (inactive)	> 100 µM (inactive)	> 100 µM (inactive)	> 100 µM (inactive)	> 100 µM (inactive)	> 100 µM (inactive)	> 100	> 100 µM (inactive)	> 100 µM (inactive)	> 100 µM (inactive)	> 100 µM (inactive)	> 100 µM (inactive)	> 100 µM (inactive)	> 100 µM (inactive)	> 100 µM (inactive)	> 100 µM (inactive)	> 100 µM (inactive)	> 100 µM (inactive)		
NCCN1C(=O)c2ccccc2C1(O)c1ccc(Cl)cc1 (stereo unspecified)	17.2 µM (inactive)	14.2 µM (inactive)	23 µM (inactive)	42.6 µM (inactive)	33.9 µM (inactive)	17.8 µM (inactive)	37.3	16.6 µM (inactive)	19 µM (inactive)	15.3 µM (inactive)	48.8 µM (inactive)	19.7 µM (inactive)	17.3 µM (inactive)	16.5 µM (inactive)	18.5 µM (inactive)	17.9 µM (inactive)	17.1 µM (inactive)		17.3 µM (inactive)	21.9 µM (inactive)
CO/N=C1\CC(NC(=O)CNC(=O)OC(C)(C)C)c2ccsc21 (stereo unspecified)		> 100 µM (inactive)		> 100 µM (inactive)	> 100 µM (inactive)	> 100 µM (inactive)	> 100	> 100 µM (inactive)	> 100 µM (inactive)	90.6 µM (inactive)	> 100 µM (inactive)	> 100 µM (inactive)		> 100 µM (inactive)	> 100 µM (inactive)	> 100 µM (inactive)	> 100 µM (inactive)	> 100 µM (inactive)	> 100 µM (inactive)	53.1 µM (inactive)
NC(=S)N/N=C\c1nccc2ccccc12	0.29 µM (active)	0.21 µM (active)	0.0501 µM (active)	0.424 µM (active)	0.404 µM (active)	0.44 µM (active)	0.369	0.324 µM (active)	0.383 µM (active)	0.388 µM (active)	0.184 µM (active)	0.264 µM (active)	0.267 µM (active)	6 µM (inactive)	0.561 µM (active)	0.551 µM (active)	1.42 µM (inactive)	0.36 µM (active)	0.357 µM (active)	
CC(=O)Nc1cc2ccc(=O)oc2cc1Cl	> 100 µM (inactive)	> 100 µM (inactive)	> 100 µM (inactive)	> 100 µM (inactive)	> 100 µM (inactive)	> 100 µM (inactive)	> 100	> 100 µM (inactive)	> 100 µM (inactive)	> 100 µM (inactive)	> 100 µM (inactive)	> 100 µM (inactive)	> 100 µM (inactive)	> 100 µM (inactive)	> 100 µM (inactive)		> 100 µM (inactive)	> 100 µM (inactive)	> 100 µM (inactive)	> 100 µM (inactive)
O=C1C=C(c2ccccc2)OC1C1Sc2ccccc2NC1=O (stereo unspecified)	5.83 µM (inactive)	7.89 µM (inactive)	4.9 µM (inactive)	14.6 µM (inactive)	12.7 µM (inactive)	4.5 µM (inactive)	12.7	13.6 µM (inactive)	8.67 µM (inactive)	5.11 µM (inactive)	14.5 µM (inactive)	13.8 µM (inactive)	3.66 µM (inactive)	8.51 µM (inactive)	9.23 µM (inactive)	9.23 µM (inactive)	7.6 µM (inactive)	7.26 µM (inactive)	14 µM (inactive)	5.11 µM (inactive)
O=C1COc2cccnc2N1CCCCO	> 100 µM (inactive)	> 100 µM (inactive)	> 100 µM (inactive)	> 100 µM (inactive)	> 100 µM (inactive)	> 100 µM (inactive)	> 100	> 100 µM (inactive)		> 100 µM (inactive)		> 100 µM (inactive)	> 100 µM (inactive)	> 100 µM (inactive)	> 100 µM (inactive)	> 100 µM (inactive)	> 100 µM (inactive)	> 100 µM (inactive)	> 100 µM (inactive)	> 100 µM (inactive)
COc1ccccc1/C=C\c1cnnc2ccccc12	> 10 µM (inactive)	> 10 µM (inactive)	> 10 µM (inactive)	> 10 µM (inactive)	> 10 µM (inactive)	5.77 µM (inactive)	> 10	3.66 µM (inactive)	> 10 µM (inactive)	3.49 µM (inactive)	> 10 µM (inactive)	> 10 µM (inactive)	> 10 µM (inactive)	> 10 µM (inactive)	> 10 µM (inactive)	> 10 µM (inactive)	> 10 µM (inactive)		> 10 µM (inactive)	9.02 µM (inactive)
CCOC(=O)c1nnc2c(C(=O)OCC)c3ccccc3n2c1N	67 µM (inactive)	4.85 µM (inactive)	7.19 µM (inactive)	13.7 µM (inactive)	37.4 µM (inactive)	29.3 µM (inactive)	7.66	5.96 µM (inactive)	5.97 µM (inactive)	5.05 µM (inactive)		> 100 µM (inactive)	1.54 µM (inactive)	5.15 µM (inactive)	8.26 µM (inactive)	7.91 µM (inactive)	2.09 µM (inactive)	7.87 µM (inactive)	> 100 µM (inactive)	11 µM (inactive)
C=C1c2[nH]c3ccccc3c2C2C(CC)C1CCN2C (stereo unspecified)	> 100 µM (inactive)	18.9 µM (inactive)	> 100 µM (inactive)	> 100 µM (inactive)	> 100 µM (inactive)	51.2 µM (inactive)	90.8	49.7 µM (inactive)	19.3 µM (inactive)	65.9 µM (inactive)	6.62 µM (inactive)	> 100 µM (inactive)	32.5 µM (inactive)	> 100 µM (inactive)	> 100 µM (inactive)	33.3 µM (inactive)	26 µM (inactive)	> 100 µM (inactive)	> 100 µM (inactive)	
COc1ccc2[nH]c3c([N+](=O)[O-])ccc(Cl)c3c(=O)c2c1	16.7 µM (inactive)	91.2 µM (inactive)	15.8 µM (inactive)	17.2 µM (inactive)	47.3 µM (inactive)	13.7 µM (inactive)	14.2	7.71 µM (inactive)	15.8 µM (inactive)	21 µM (inactive)	34.4 µM (inactive)	> 43 µM (inactive)	17.4 µM (inactive)	22.1 µM (inactive)	7.67 µM (inactive)	20.2 µM (inactive)	11.5 µM (inactive)	17.3 µM (inactive)	13.6 µM (inactive)	
COC(=O)[C@H](Cc1ccccc1)NC(=O)OCC1OC(n2cc(C)c(=O)[nH]c2=O)CC1N=[N+]=[N-] (stereo partly specified)	> 100 µM (inactive)		86.1 µM (inactive)	> 100 µM (inactive)	> 100 µM (inactive)	> 100 µM (inactive)	> 100	> 100 µM (inactive)	> 100 µM (inactive)	> 100 µM (inactive)	> 100 µM (inactive)	> 100 µM (inactive)	> 100 µM (inactive)	> 100 µM (inactive)	> 100 µM (inactive)	> 100 µM (inactive)	> 100 µM (inactive)	> 100 µM (inactive)	> 100 µM (inactive)	78.3 µM (inactive)
COc1ccc(C2CC(=O)CC(c3ccc(OC)cc3)C23C(=O)NC(=S)NC3=O)cc1 (stereo unspecified)	> 100 µM (inactive)		> 100 µM (inactive)	> 100 µM (inactive)	> 100 µM (inactive)	> 100 µM (inactive)	> 100	> 100 µM (inactive)	> 100 µM (inactive)	> 100 µM (inactive)	> 100 µM (inactive)	> 100 µM (inactive)	> 10 µM (inactive)	> 100 µM (inactive)	> 100 µM (inactive)	> 100 µM (inactive)	> 100 µM (inactive)	> 100 µM (inactive)	> 100 µM (inactive)	> 100 µM (inactive)
O=C(OCc1ccccc1[N+](=O)[O-])N1c2ccccc2[C@@]23O[C@]24CCC[C@H]3C#C/C=C\C#C[C@H]14	15.7 µM (inactive)	> 100 µM (inactive)	12.8 µM (inactive)	49.5 µM (inactive)	> 100 µM (inactive)	41.5 µM (inactive)	17	6.73 µM (inactive)	> 100 µM (inactive)	> 100 µM (inactive)	> 100 µM (inactive)	66.7 µM (inactive)		> 100 µM (inactive)	9.16 µM (inactive)	> 100 µM (inactive)	> 100 µM (inactive)	21 µM (inactive)	> 100 µM (inactive)	
COc1cc2c(cc1-c1coc3cc(O)ccc3c1=O)OCO2 [CUNEATIN]	15.7 µM (inactive)	31 µM (inactive)	20.1 µM (inactive)	19.5 µM (inactive)	39.6 µM (inactive)	18.7 µM (inactive)	18.6	46.6 µM (inactive)	71 µM (inactive)	> 100 µM (inactive)	20.3 µM (inactive)	40.2 µM (inactive)	26.5 µM (inactive)	37 µM (inactive)	32.8 µM (inactive)	20.9 µM (inactive)	26 µM (inactive)	22.1 µM (inactive)		20.5 µM (inactive)
